Assay results published in patent US4540689A, “Penicillin derivative” (Kureha Kagaku Kogyo Kabushiki Kaisha, priority 1981, dated 1985).
Values after ≈ are worked out from the molar mass of the structure shown.

Assays:
Bacteroides = assay: Effect on intestinal bacterial colonies, Bacteroides count in feces; format: in vivo; settings: female ICR mice, oral 500 mg/kg/day for two days, first day after administration; before administration 8.3
Protocol: (§1) Effect of the present compounds on the intestinal bacterial colonies was examined.
(§2) Each of the present compounds was orally administered to mice (one group consisting of five female ICR mice of 6-week-old) for two consecutive days at a dose of 500 mg/kg/day.
(§3) Before and on the first day after the administration, feces of each mouse was collected and diluted with an anerobic diluent (phosphoric buffer solution) of 100 times volume and ground. 0.1 ml of the diluted and ground feces was smeared on each culture medium shown in Table 1 and cultured aerobically or anaerobically (according to the anaerobic glove box method) under each condition shown in Table 1.
Bacteroides NBGT agar anaerobic, 37° C., five

[1] = test system: Staphylococcus aureus IAM 1011; assay: Antibacterial activity (MIC), agar plate, Staph. aureus; format: cell-based; settings: Staph. aureus IAM 1011, Mueller-Hinton agar, 37° C., 18 to 24 hours; unit assumed
Protocol: (§4) Antibacterial activity of the present compounds was examined as follows.
(§5) Antibacterial activity of each of the present compounds was examined against the following two bacteria according to the standard method of Japan Society of Chemotherapy:
Staphylococcus aureus IAM 1011
(§6) Each bacterial strain was inoculated into the Mueller-Hinton's culture medium and cultured at 37° C. for 18 to 48 hours. The culture medium was diluted so as to contain 1×10^6 cells of the bacteria per one ml, and the obtained medium was used as the bacterial specimen.
(§7) Agar plates were prepared by adding one part by weight of each solution of the present compounds having a predetermined concentration to nine parts by weight of Mueller-Hinton's culture medium.
(§8) A loopful amount of the bacterial specimen prepared above was smeared to make a streak of about 2 cm on each agar plate and cultured at 37° C. for 18 to 24 hours. The minimum concentration for completely inhibiting proliferation of the bacteria (referred as MIC) was determined.

[2] = test system: Lactobacillus acidophilus; assay: Effect on intestinal bacterial colonies, L. acidophilus count in feces; format: in vivo; settings: female ICR mice, oral 500 mg/kg/day for two days, first day after administration; before administration 9.0
Protocol: as §1, §2, §3
Lactobacillus acidophilus
LBS agar anaerobic, 37° C., five

Lactobacillus bifidus = assay: Effect on intestinal bacterial colonies, L. bifidus count in feces; format: in vivo; settings: female ICR mice, oral 500 mg/kg/day for two days, first day after administration; before administration 8.4
Protocol: as §1, §2, §3
BS agar anaerobic, 37° C., five

Escherichia coli = assay: Effect on intestinal bacterial colonies, E. coli count in feces; format: in vivo; settings: female ICR mice, oral 500 mg/kg/day for two days, first day after administration; before administration 6.4
Protocol: as §1, §2, §3
DHL agar aerobic, 37° C., one day

Streptococcus spp. = assay: Effect on intestinal bacterial colonies, Streptococcus count in feces; format: in vivo; settings: female ICR mice, oral 500 mg/kg/day for two days, first day after administration; before administration 6.8
Protocol: as §1, §2, §3
TATAC agar aerobic, 37° C., one day

[3] = test system: Staphylococcus aureus IAM 1011; assay: Activation by rat liver homogenate (S-9 mix), penicillin cup proliferation-inhibiting circle; format: cell-based; settings: compound solution 100 μg/ml, ratio of circle diameter to conventional penicillin antibiotic; for Proliferation-inhibiting index (%), after adding S-9 mix: incubated with S-9 mix 37° C., 20 min; for Proliferation-inhibiting index (%), before adding S-9 mix: phosphoric buffer control without S-9
Protocol: As an enzyme for activating metabolism, a rat liver homogenate (S-9, manufactured by Oriental Yeast Company, Japan) was used in the following composition per one ml (hereinafter referred to as S-9 mix).
0.1 ml of each solution of the present compounds at a concentration of 100 μg/ml was mixed with 0.9 ml of S-9 mix or 0.9 ml of 0.1M phosphoric buffer solution (as a control) and the obtained mixture was incubated at 37° C. for 20 min with shaking.
Staphylococcus aureus IAM 1011 was inoculated into a Mueller-Hinton's culture medium and cultured at 37° C. for 18 hours. The culture medium was adjusted to a cell concentration of 1×10^8 per one ml and mixed with 50 times by volume of Mueller-Hinton's agar culture medium to obtain an agar plate.
A penicillin cup of 8 mm in diameter was placed on the agar plate prepared above, and into the cup 0.1 ml of the mixture was introduced and allowed to stand at 4° C. for 2 hours and then cultured at 37° C. for 18 hours to measure the diameter of a circle in which the proliferation of bacteria was inhibited (proliferation-inhibiting circle). In Table 4, the proliferation-inhibitingindex is shown with the ratio (%) of the diameter of the proliferation-inhibiting circle obtained by using each of the present compounds to that obtained by using the comparative compound (conventionalpenicillin antibiotic).

[4] = test system: Escherichia coli IFO 12734; assay: Antibacterial activity (MIC), agar plate, E. coli; format: cell-based; settings: E. coli IFO 12734, Mueller-Hinton agar, 37° C., 18 to 24 hours; unit assumed
Protocol: as §4, §5
Escherichia coli IFO 12734 and
as §6, §7, §8

Pseudomonas aeruginosa = assay: Effect on intestinal bacterial colonies, Ps. aeruginosa count in feces; format: in vivo; settings: female ICR mice, oral 500 mg/kg/day for two days, first day after administration; before administration <3.0
Protocol: as §1, §2, §3
NAC agar aerobic, 37° C., one day

MIC, Staph. aureus [1] [µg/mL] | MIC, E. coli [4] [µg/mL] | Compound | Logarithmic value of the number of bacterial cells per one gram of feces, Bacteroides (Bacteroides) | Logarithmic value of the number of bacterial cells per one gram of feces, L. acidophilus [2] | Logarithmic value of the number of bacterial cells per one gram of feces, L. bifidus (Lactobacillus bifidus) | Logarithmic value of the number of bacterial cells per one gram of feces, E. coli (Escherichia coli) | Logarithmic value of the number of bacterial cells per one gram of feces, Strept. spp. (Streptococcus spp.) | Proliferation-inhibiting index (%), after adding S-9 mix [3] | Proliferation-inhibiting index (%), before adding S-9 mix [3] | Logarithmic value of the number of bacterial cells per one gram of feces, Ps. aeruginosa (Pseudomonas aeruginosa)
0.1 | 6.25 | COc1cccc(C=NC(C(=O)N[C@@H]2C(=O)N3[C@@H]2SC(C)(C)[C@@H]3C(=O)O)c2ccccc2)c1O (some centres unmarked) [Example 2, sodium 6-(3-methoxysalicylaldehydeiminophenyl-glycino)penicillanate] | 8.3 logarithmic value; cells per o | 8.8 logarithmic value; cells per o | 8.3 logarithmic value; cells per o | 6.4 logarithmic value; cells per o | 6.5 logarithmic value; cells per o | +++ (66-100) | ++ (33-66) | < 3.0 logarithmic value; cells per o
0.78 (≈ 1.56 µM) | 12.5 (≈ 25.1 µM) | CC1(C)S[C@@H]2[C@H](NC(=O)C(N=Cc3cc([N+](=O)[O-])ccc3O)c3ccccc3)C(=O)N2[C@H]1C(=O)O (some centres unmarked) [Example 3] | 8.2 logarithmic value; cells per o | 9.1 logarithmic value; cells per o | 8.4 logarithmic value; cells per o | 6.5 logarithmic value; cells per o | 6.8 logarithmic value; cells per o | +++ (66-100) | ++ (33-66) | < 3.0 logarithmic value; cells per o
0.78 | 12.5 | CC1(C)S[C@@H]2[C@H](NC(=O)C(N=Cc3ccccc3O)c3ccccc3)C(=O)N2[C@H]1C(=O)O (some centres unmarked) [Example 4, sodium 6-(salicylaldehydeiminophenylglycino)penicillanate] | 8.2 logarithmic value; cells per o | 8.8 logarithmic value; cells per o | 8.8 logarithmic value; cells per o | 6.4 logarithmic value; cells per o | 6.5 logarithmic value; cells per o | +++ (66-100) | ++ (33-66) | < 3.0 logarithmic value; cells per o
0.1 | 6.25 | CC1(C)S[C@@H]2[C@H](NC(=O)C(N=Cc3cc(Cl)ccc3O)c3ccccc3)C(=O)N2[C@H]1C(=O)O (some centres unmarked) [Example 5, sodium 6-(5-chlorosalicylaldehydeiminophenylglycino)penicillanate] | 8.0 logarithmic value; cells per o | 8.8 logarithmic value; cells per o | 8.7 logarithmic value; cells per o | 6.5 logarithmic value; cells per o | 6.6 logarithmic value; cells per o | +++ (66-100) | ++ (33-66) | 3.3 logarithmic value; cells per o
12.5 (≈ 31.7 µM) | ≥ 25 | COCOC(=O)[C@@H]1N2C(=O)[C@@H](NC(=O)COc3ccccc3)[C@H]2SC1(C)C [Example 9] | 8.1 logarithmic value; cells per o | 9.5 logarithmic value; cells per o | 8.5 logarithmic value; cells per o | 6.5 logarithmic value; cells per o | 7.0 logarithmic value; cells per o | ++ (33-66) | + (1-33) | 3.2 logarithmic value; cells per o
